Patent US7960377B2 (priority 2008, dated 2011)

Experiments:
human CB1 receptor = human CB1 receptor (Homo sapiens, UniProt P21554); test: cell-based
rat CB2 receptor = target: T1, rat CB2 receptor (Rattus norvegicus, UniProt Q9QZN9); test: cell-based; type: cell-based
T1 sequence (Q9QZN9 1-360): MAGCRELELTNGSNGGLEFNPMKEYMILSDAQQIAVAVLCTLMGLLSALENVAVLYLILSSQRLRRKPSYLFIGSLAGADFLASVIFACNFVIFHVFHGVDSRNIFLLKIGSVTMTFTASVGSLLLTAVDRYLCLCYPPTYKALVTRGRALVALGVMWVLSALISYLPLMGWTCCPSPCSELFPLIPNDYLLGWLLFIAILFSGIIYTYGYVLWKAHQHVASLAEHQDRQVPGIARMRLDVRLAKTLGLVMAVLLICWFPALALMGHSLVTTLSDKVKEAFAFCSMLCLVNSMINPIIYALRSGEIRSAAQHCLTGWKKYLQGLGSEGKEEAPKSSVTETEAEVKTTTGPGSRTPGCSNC

Chain of human CB1 receptor (P21554 whole entry): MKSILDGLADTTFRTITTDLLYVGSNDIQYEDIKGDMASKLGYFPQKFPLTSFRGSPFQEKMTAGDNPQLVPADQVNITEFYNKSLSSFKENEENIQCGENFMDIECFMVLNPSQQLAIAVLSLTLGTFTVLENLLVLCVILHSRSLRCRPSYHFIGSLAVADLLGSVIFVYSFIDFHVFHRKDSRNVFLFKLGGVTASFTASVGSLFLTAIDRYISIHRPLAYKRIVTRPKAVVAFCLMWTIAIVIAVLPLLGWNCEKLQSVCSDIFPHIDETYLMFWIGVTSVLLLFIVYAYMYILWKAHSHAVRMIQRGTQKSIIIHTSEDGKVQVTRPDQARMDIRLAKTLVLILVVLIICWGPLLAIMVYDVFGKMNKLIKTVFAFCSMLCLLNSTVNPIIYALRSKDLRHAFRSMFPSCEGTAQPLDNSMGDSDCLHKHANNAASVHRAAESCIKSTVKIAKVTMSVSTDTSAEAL

SMILES	EC50 (human CB1 receptor) [µM]	EC50 (rat CB2 receptor) [µM]
CC(C)(O)CNC(=O)c1cnc2c(c1)N(S(=O)(=O)c1ccc(Cl)c(Cl)c1)CCO2 [Example 98]	> 30	≤ 0.03
CC(C)(CO)NC(=O)c1cnc2c(c1)N(S(=O)(=O)c1ccc(F)c(Cl)c1)CCO2 [Example 99, 1-(3-chloro-4-fluorophenylsulfonyl)-N-(1-hydroxy-2-methylpropan-2-yl)-2,3-dihydro-1H-pyrido[2,3-b][1,4]oxazine-7-carboxamide]	> 30	≤ 0.03
COc1ccc(S(=O)(=O)N2CCOc3ncc(C(=O)NC(C)(C)CO)cc32)c(F)c1 [Example 103, 1-(2-fluoro-4-methoxyphenylsulfonyl)-N-(1-hydroxy-2-methylpropan-2-yl)-2,3-dihydro-1H-pyrido[2,3-b][1,4]oxazine-7-carboxamide]	> 30	≤ 0.03
COc1ccc(S(=O)(=O)N2CCOc3ncc(C(=O)NCC(C)(C)O)cc32)cc1Cl [Example 104]	> 30	≤ 0.03
CC(C)(CN1CCOCC1)NC(=O)c1cnc2c(c1)N(S(=O)(=O)c1ccc(Cl)cc1F)CCO2 [Example 113, 1-(4-chloro-2-fluorophenylsulfonyl)-N-(2-methyl-1-morpholinopropan-2-yl)-2,3-dihydro-1H-pyrido[2,3-b][1,4]oxazine-7-carboxamide]	> 30	≤ 0.03
O=C(N[C@@H]1CCC[C@H]1O)c1cnc2c(c1)N(S(=O)(=O)c1ccc(Cl)c(Cl)c1)CCO2 [Example 133, 1-(3,4-dichlorophenyl-sulfonyl)-N-((1R,2R)-2-hydroxycyclopentyl)-2,3-dihydro-1H-pyrido[2,3-b][1,4]oxazine-7-carboxamide]	> 30	≤ 0.03
O=C(NC1CCC1)c1cnc2c(c1)N(S(=O)(=O)c1ccc(Cl)c(Cl)c1)CCO2 [Example 137, N-cyclobutyl-1-(3,4-dichlorophenylsulfonyl)-2,3-dihydro-1H-pyrido[2,3-b][1,4]oxazine-7-carboxamide]	> 30	≤ 0.03
O=C(NCc1ccccc1)c1cnc2c(c1)N(S(=O)(=O)c1ccc(Cl)c(Cl)c1)CCO2 [Example 138, N-benzyl-1-(3,4-dichlorophenylsulfonyl)-2,3-dihydro-1H-pyrido[2,3-b][1,4]oxazine-7-carboxamide]	> 30	≤ 0.03
CCOC(=O)C1(NC(=O)c2cnc3c(c2)N(S(=O)(=O)c2ccc(Cl)c(Cl)c2)CCO3)CCC1 [Example 139, ethyl 1-(1-(3,4-dichloro-phenylsulfonyl)-2,3-dihydro-1H-pyrido[2,3-b][1,4]oxazine-7-carboxamido)cyclobutane-carboxylate]	> 30	≤ 0.03
CC(C)(C)NC(=O)c1cnc2c(c1)N(S(=O)(=O)N1CCOCC1)CCO2 [Example 140, N-tert-butyl-1-(morpholinosulfonyl)-2,3-dihydro-1H-pyrido[2,3-b][1,4]oxazine-7-carboxamide]	> 30	≤ 0.03
CC(C)(CO)NC(=O)c1cnc2c(c1)N(S(=O)(=O)N1CCCCC1)CCO2 [Example 146, N-(1-hydroxy-2-methylpropan-2-yl)-1-(piperidin-1-ylsulfonyl)-2,3-dihydro-1H-pyrido[2,3-b][1,4]oxazine-7-carboxamide]	> 30	≤ 0.03
CC(C)(C)NC(=O)c1cnc2c(c1)N(S(=O)(=O)N1CCC(F)CC1)CCO2 [Example 166, N-tert-butyl-1-(4-fluoropiperidin-1-ylsulfonyl)-2,3-dihydro-1H-pyrido[2,3-b][1,4]oxazine-7-carboxamide]	> 30	≤ 0.03
CC(C)(CO)CNC(=O)c1cnc2c(c1)N(S(=O)(=O)N1CCC(F)CC1)CCO2 [Example 169, 1-(4-fluoropiperidin-1-ylsulfonyl)-N-(3-hydroxy-2,2-dimethylpropyl)-2,3-dihydro-1H-pyrido[2,3-b][1,4]oxazine-7-carboxamide]	> 30	≤ 0.03
